The target of one test is T1, Serotonin 5HT7 (Homo sapiens, UniProt P34969).
T1 construct: host or cells: CHO cells
The experiment in a line: Radioligand binding, Serotonin 5HT7 ([3H]LSD). The method, then: (§1) The assays utilized human neuroreceptors and were performed under the experimental parameters set forth in Table 2 using standard techniques.
(§2) For Table 3, IC50 values were determined by non-linear, least squares regression analysis using Data Analysis Toolbox™ (MDL Information Systems, San Leandro, Calif., USA). Inhibition constants (KI) were calculated using the equation of Cheng and Prusoff (Cheng, Y., et al. Biochem. Pharmacol. 22:3099-3108, 1973) using the observed IC50 of the tested compound, the concentration of radioligand employed in the assay, and the values for the KD of the ligand. The Hill coefficient (nH), defining the slope of the competitive binding curve, was calculated using the Data Analysis Toolbox™. Biochemical assay results are presented as the percent inhibition of specific binding or activity unless indicated otherwise. The experiments summarized in Table 3 utilized human dopamine D1, D2 s, D21, D3, D4.2, D4.4, serotonin 5HT1A, 5HT2A, 5HT2C, 5HT6, 5HT7, dopamine transporter (DAT), serotonin transporter (SERT) and the norepinephrine transporter (NET), as indicated in Table 3.

The target of test [1] is T2, Norepinephrine transporter (NET) (Homo sapiens, UniProt P23975).
T2 construct: host or cells: MDCK cells
T2 sequence (P23975 whole entry): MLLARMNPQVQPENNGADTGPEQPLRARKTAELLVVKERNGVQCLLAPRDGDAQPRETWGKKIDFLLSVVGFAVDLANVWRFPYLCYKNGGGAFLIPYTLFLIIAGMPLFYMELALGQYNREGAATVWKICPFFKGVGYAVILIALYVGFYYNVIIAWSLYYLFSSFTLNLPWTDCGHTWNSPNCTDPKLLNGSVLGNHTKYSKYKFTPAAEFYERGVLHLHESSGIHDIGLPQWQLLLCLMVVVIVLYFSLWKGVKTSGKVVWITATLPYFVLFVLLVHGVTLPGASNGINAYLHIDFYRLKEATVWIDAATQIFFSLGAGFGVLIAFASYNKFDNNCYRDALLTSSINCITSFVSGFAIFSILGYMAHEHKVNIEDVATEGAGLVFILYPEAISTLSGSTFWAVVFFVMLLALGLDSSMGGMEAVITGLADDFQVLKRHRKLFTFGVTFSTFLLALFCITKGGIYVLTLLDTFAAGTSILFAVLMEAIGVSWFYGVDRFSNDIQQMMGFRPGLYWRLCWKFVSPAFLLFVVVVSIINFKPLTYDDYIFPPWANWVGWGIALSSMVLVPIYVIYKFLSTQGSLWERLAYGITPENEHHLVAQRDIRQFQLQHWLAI
The experiment in a line: Radioligand binding, Norepinephrine transporter (NET) ([125I]RTI-55). On the procedure:
as §1, §2

For a further test, the target named is Dopamine D1 (Homo sapiens, UniProt P21728). Put plainly: Radioligand binding, Dopamine D1. To be noted: Dopamine D1, 10 μM; read-out: Percentage Inhibition. On the procedure: as §1, §2
Sequence of Dopamine D1 (P21728 whole entry): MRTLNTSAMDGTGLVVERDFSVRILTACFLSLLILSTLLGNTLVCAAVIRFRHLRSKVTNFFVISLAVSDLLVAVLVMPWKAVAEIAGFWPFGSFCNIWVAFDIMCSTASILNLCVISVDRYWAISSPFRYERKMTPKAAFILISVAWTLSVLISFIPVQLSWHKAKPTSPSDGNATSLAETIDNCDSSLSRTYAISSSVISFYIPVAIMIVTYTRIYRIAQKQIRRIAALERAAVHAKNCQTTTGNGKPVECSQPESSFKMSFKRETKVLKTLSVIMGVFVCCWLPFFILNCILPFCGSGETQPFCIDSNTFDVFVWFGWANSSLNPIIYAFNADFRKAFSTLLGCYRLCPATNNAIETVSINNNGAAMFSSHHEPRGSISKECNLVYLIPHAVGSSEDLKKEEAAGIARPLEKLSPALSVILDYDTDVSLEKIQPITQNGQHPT
Another test deals with T3, Serotonin 5HT6 (Homo sapiens, UniProt P50406).
T3 construct: host or cells: HeLa cells
T3 sequence (P50406 whole entry): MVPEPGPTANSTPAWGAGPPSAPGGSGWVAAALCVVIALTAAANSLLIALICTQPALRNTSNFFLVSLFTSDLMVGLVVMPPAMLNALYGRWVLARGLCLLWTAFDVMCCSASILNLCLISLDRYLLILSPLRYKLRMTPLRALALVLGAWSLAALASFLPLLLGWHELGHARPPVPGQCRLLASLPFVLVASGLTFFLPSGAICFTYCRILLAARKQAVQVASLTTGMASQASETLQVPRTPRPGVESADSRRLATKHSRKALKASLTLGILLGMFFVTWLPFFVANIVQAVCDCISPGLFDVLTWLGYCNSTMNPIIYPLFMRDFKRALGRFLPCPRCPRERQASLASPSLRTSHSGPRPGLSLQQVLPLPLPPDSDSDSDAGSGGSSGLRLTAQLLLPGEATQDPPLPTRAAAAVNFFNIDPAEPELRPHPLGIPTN
The experiment in a line: Radioligand binding, Serotonin 5HT6 ([3H]LSD). The method, then: as §1, §2

pIC50, pKi: −log10 of the molar value.

T1 sequence (P34969 whole entry): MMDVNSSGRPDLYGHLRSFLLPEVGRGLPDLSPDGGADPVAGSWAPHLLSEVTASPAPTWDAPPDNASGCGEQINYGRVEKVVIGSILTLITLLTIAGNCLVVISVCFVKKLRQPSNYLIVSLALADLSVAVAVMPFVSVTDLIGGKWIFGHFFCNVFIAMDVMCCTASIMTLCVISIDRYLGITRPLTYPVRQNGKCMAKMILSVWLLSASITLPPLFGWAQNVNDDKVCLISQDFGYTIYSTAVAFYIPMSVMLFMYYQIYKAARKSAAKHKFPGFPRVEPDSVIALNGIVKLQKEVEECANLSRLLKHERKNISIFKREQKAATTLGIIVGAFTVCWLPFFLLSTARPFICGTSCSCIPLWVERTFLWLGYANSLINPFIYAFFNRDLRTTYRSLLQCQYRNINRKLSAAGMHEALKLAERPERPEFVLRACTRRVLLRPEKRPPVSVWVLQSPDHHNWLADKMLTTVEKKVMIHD

The pIC50 is −log10 of the IC50, conventionally taken in molar units. A higher pIC50 goes with a low IC50. For orientation: pKi means the Ki on a negative log10 scale, so that one unit is a factor of ten. Read a high pKi as a small Ki. One may read the inhibition as the drop in the measured response relative to a control, in per cent. In the case of `COC(=O)[C@@H](c1ccc(-c2ccccc2)cc1)[C@H]1C=CCCN1` [Compound 2], the pIC50 on Serotonin 5HT7 is 4.59; in test [1] it was 5.00; on Serotonin 5HT6, 4.02. For the same compound, the pKi on Serotonin 5HT7 is 4.83; in test [1] it was 5.00; on Serotonin 5HT6 it was 4.36. For the same compound, the inhibition at 30 µM at Serotonin 5HT7 (Serotonin 5HT7, 30 μM, read-out: Percentage Inhibition) is 53%. Moreover, the nH was 0.774 on Serotonin 5HT7 (Serotonin 5HT7, Hill coefficient); 1.1 in test [1] (Norepinephrine transporter (NET), Hill coefficient); 1.12 at Serotonin 5HT6 (Serotonin 5HT6, Hill coefficient). For the same compound, the inhibition at 10 µM worked out at 51% in test [1] (Norepinephrine transporter (NET), 10 μM, read-out: Percentage Inhibition) and 17% on Dopamine D1. The inhibition at 100 µM on Serotonin 5HT6 (Serotonin 5HT6, 100 μM, read-out: Percentage Inhibition) was determined as 53%.
